The target in series [1] is T1, Candida albicans isoleucyl-tRNA synthetase, N-terminal GST-fusion protein (GST-IleRS) encoded by pQB83CAIRS-1, produced in S. cerevisiae, SEQ ID NO:2 (Candida albicans, UniProt Q59RI1, S1065L/S390L).
T1 construct: thrombin-cleavable), pQB83CAIRS-1, expressed in S. cerevisiae QBY3; CTG codons 390 and 1065 read as Leu by host
The series can be described thus: Aminoacylation (charging) assay for Km determination, purified GST-IleRS fusion. Type of series: biochemical. The settings on record: isoleucine varied; 1.09 nM active enzyme; crude yeast tRNA. The procedure:
(§1) The purified recombinant GST-fusion protein and the product after thrombin cleavage of the GST-fusion protein were tested for their charging activities. Charging assays were based on the procedure of Shepard et al. (Proc. Natl. Acad. Sci. USA 89:9964-68 (1992)). Unless otherwise stated, a typical 50 μl reaction was carried out at 25° C. and contained 4 mM ATP, 20 μM of [^3 H]isoleucine, 90 μM crude tRNA from E. coli (Sigma) or brewer's yeast (Boehringer Mannheim), 10 μM KF, 50 mM HEPES, pH 7.5, 10 mM MgCl2, 10 mM DTT or β-mercaptoethanol and 30 mM NH4 Cl. Purified enzyme was diluted in 100 mM HEPES, pH 7.5, 20 mM DTT and 0.1 mg/ml BSA.
(§2) Reactions were started by the addition of enzyme to the reaction mixture preincubated at 25° C. At various time intervals, 10 μl of the reaction mix was spotted on 3MM Whatman filter circles which were then immersed in ice cold 5% TCA. After three washes in ice cold 5% TCA (at least 15 minutes each), the filters were rinsed once with cold ethanol, once with ether, and air dried. The radioactivity was quantitated by counting the filters in a table top scintillation counter (Packard) in the presence of scintillation fluid (Betafluor; National Diagnostics).
(§3) For determination of Km, various concentrations of one substrate (ATP, amino acid, or tRNA) were used while the other two substrates were kept at saturating concentrations. To test the effect of temperature, the reactions were incubated at 25°, 30°, 37° and 42° C. The Bradford assay was used for determination of total protein. The proportion of active enzyme was calculated by monitoring the formation of the amino acid-adenylate:enzyme complex using a nitrocellulose filter binding assay in the presence of various dilutions of enzyme preparation. A 50 μl reaction contained 1 mM ATP, 1 unit of pyrophosphatase, 50 mM Tris-HCl, pH 5.8, 10 mM MgCl2, 30 mM KCl, 20 mM DTT, 40 μM of radioactively labeled amino acid, and diluted enzyme. […]

For another series, the system named is CC[C@H](C)[C@H](N)C(=O)O. Described as above. The format is biochemical, Candida albicans. The settings on record: other: crude yeast tRNA, 2 to 32 μM [3H]isoleucine, 25° C., spread printed in b267: ±4.8 μM. On the procedure: as §1, §2, §3

T1 sequence (Q59RI1 whole entry S390L/N691S/E755D/I1040V/S1065L, the tested form may be a part): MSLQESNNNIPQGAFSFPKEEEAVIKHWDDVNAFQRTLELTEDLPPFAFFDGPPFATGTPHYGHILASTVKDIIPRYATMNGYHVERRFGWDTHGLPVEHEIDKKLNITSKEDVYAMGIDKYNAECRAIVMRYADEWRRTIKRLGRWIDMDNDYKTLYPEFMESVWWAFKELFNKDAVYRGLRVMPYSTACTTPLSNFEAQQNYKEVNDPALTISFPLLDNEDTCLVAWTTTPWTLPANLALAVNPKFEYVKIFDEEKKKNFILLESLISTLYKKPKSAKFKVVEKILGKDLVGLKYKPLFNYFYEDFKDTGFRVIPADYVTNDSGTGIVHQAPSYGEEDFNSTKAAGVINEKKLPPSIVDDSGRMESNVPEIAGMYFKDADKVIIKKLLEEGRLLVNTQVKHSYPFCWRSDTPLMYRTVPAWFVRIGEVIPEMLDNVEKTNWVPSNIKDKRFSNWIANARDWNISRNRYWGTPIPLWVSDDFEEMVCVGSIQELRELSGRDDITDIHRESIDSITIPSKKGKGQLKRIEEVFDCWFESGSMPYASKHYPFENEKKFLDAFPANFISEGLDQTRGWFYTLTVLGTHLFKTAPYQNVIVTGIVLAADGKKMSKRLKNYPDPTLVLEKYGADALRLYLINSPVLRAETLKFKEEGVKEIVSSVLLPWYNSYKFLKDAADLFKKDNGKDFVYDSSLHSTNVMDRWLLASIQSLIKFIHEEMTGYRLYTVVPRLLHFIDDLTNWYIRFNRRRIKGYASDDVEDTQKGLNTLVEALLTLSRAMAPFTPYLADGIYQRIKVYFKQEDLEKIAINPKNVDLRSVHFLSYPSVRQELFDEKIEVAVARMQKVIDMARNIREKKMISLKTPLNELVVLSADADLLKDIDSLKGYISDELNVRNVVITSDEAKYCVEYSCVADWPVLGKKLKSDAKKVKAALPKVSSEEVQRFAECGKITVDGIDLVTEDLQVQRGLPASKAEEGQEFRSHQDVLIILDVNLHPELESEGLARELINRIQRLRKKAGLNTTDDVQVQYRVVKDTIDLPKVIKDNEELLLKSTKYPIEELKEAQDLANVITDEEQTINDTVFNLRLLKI

A word on the Vmax: it is the top rate of the reaction or transport when substrate is in excess. As to `CC[C@H](C)[C@H](N)C(=O)O` [isoleucine], in series [1], the Vmax worked out at 4 ± 0.5 nM/s and the kcat was found to be 3.7±0.5 per sec.

Broadly, the Km is the concentration of substrate that gives half-maximal velocity. With “Candida albicans isoleucyl-tRNA synthetase, N-terminal GST-fusion protein (GST-IleRS) encoded by pQB83CAIRS-1, produced in S. cerevisiae, SEQ ID NO:2 (Candida albicans SC5314; S1065L/S390L)”, the Km in the series with CC[C@H](C)[C@H](N)C(=O)O came to 17 µM.

The values above are taken from patent US5885815A, “Candida isoleucyl-tRNA synthetase proteins, nucleic acids and strains comprising same” (priority 1996, dated 1999).
